Among the test systems are Hs-578T; ACHN; SK-MEL-5; MDA-N; MCF7; A498; DU-145; MOLT-4; PC-3; HCT-15; NCI-H460; T47D; RPMI-8226; U-251; NCI-H226.
Holding throughout (assay): NCI anticancer screen, dose series, 48 h

The values that follow come from ChEMBL document CHEMBL1201862, “PubChem BioAssay data set” (2004).

Molecules are shown by their SMILES.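 Dose response: 5 concentrations. Exposure: 48 h. Format: 96-well plates. Endpoint: linear interpolation; highest concentration if not reached. Abbreviation: GI50, concentration required for 50% inhibition of growth.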 Calls of active or inactive are those of the source. No stated cut-off is given here; in the data, active = GI50 up to about 1.1 µM and inactive = higher. Starred links: 1 amine or outer side, 2 acyl side, 3 side chain; linkers in the order of their positions; H or OH if unused. Non-standard residues stand in square brackets, D forms with d. Residues, ends and D or L forms follow the SMILES beside them. *: point of attachment. X47 = CCC(=O)CC1CC(C)CC(C(=O)[*:2])N1[*:1]; X46 = CCCCCCCCC(C)C(=O)*; Aib = CC(C)(N)C(=O)O; X48 = CC(CN(C)CCO)N* Bounds are passed on as bounds.

For the molecule `O=C(CCc1cccc(O)c1)NCCCNC(=O)CCc1cccc(O)c1`, the GI50 in the test on Hs-578T, in the test on ACHN, in the test with SK-MEL-5, in the test on MDA-N, in the test with MCF7 and in the test with A498 was > 100 µM (inactive) throughout. For the same molecule, the GI50 with DU-145 is > 100 µM (inactive); in the test with MOLT-4 it was > 100 µM (inactive); in the test on PC-3, > 100 µM (inactive); in the test with HCT-15, more than 100 µM; in the test with NCI-H460, > 100 µM (inactive); with T47D it was > 100 µM (inactive). The GI50 in the test on RPMI-8226 and with U-251 was > 100 µM (inactive) throughout.
Regarding `COC(=O)CNS(=O)(=O)c1ccc(-c2c3nc(c(-c4ccc(S(=O)(=O)NCC(=O)OC)cc4)c4ccc([nH]4)c(-c4ccc(S(=O)(=O)NCC(=O)OC)cc4)c4nc(c(-c5ccc(S(=O)(=O)NCC(=O)OC)cc5)c5ccc2[nH]5)C=C4)C=C3)cc1`, the GI50 with Hs-578T is > 100 µM (inactive); with ACHN, > 100 µM (inactive); in the test on SK-MEL-5, > 100 µM (inactive); with MDA-N, > 100 µM (inactive); in the test with MCF7 it was > 100 µM (inactive); with A498, 64.9 µM (inactive). In addition, the GI50 is > 100 µM (inactive) with DU-145; > 100 µM (inactive) with MOLT-4; > 100 µM (inactive) in the test on PC-3; more than 100 µM with HCT-15; > 100 µM (inactive) with NCI-H460; > 100 µM (inactive) in the test on T47D. Further, the GI50 with RPMI-8226 was > 100 µM (inactive); with U-251, 82.6 µM (inactive).
`Oc1ccc(/C=N/c2ccccc2O)cc1`: the GI50 was 37.2 µM (inactive) in the test on Hs-578T; 94.6 µM (inactive) in the test on NCI-H226; 60.7 µM (inactive) with ACHN; 20.2 µM (inactive) in the test with SK-MEL-5; 18.3 µM (inactive) with MDA-N; 27.4 µM (inactive) in the test on MCF7. In addition, the GI50 is > 100 µM (inactive) in the test with A498; 17 µM (inactive) in the test with DU-145; 51.2 µM (inactive) in the test with MOLT-4; 34.1 µM (inactive) in the test on PC-3; 21.3 µM in the test on HCT-15; 38.9 µM (inactive) with NCI-H460. The figures for the GI50 in the test with T47D, with RPMI-8226 and with U-251 were 73.5 µM (inactive), 22.5 µM (inactive) and 31.3 µM (inactive), respectively.
For the molecule `C/C(Cl)=N\OC(=O)Nc1ccc(C)cc1`, the GI50 in the test on Hs-578T was 28.6 µM (inactive); with ACHN, 15.7 µM (inactive); in the test with SK-MEL-5, 17.7 µM (inactive); in the test with MDA-N, 16.3 µM (inactive); in the test on MCF7, 11.9 µM (inactive); in the test on A498, 18.8 µM (inactive). The GI50 was > 10 µM (inactive) in the test on DU-145; > 10 µM (inactive) with MOLT-4; 15.8 µM (inactive) in the test on PC-3; 15.4 µM with HCT-15; 18.1 µM (inactive) in the test on NCI-H460; 16 µM (inactive) with T47D. Further, the GI50 with RPMI-8226 is > 10 µM (inactive); in the test with U-251, 16.3 µM (inactive).
Take `CCCCCCCCC(C)C(=O)N1CCCC1C(=O)N1C(CC(=O)CC)CC(C)CC1C(=O)NC(C)C(=O)NC(C)(C)C(=O)NC(C)(C)C(=O)NC(C(=O)NC(C)C(=O)NC(C)(C)C(=O)NC(C)(C)C(=O)NC(C)CN(C)CCO)C(C)CC` (stereo not given) (X46-P[X47]A[Aib][Aib]IA[Aib][Aib]-X48; configuration not given here): the GI50 with Hs-578T is 0.168 µM (active); in the test on NCI-H226, 0.133 µM (active); in the test with ACHN, 0.0368 µM (active); with SK-MEL-5 it was < 0.0135 µM (active); in the test on MDA-N, 1.17 µM (inactive); with MCF7 it was < 0.01 µM (active). Moreover, the GI50 with A498 was 2 µM (inactive); in the test on DU-145, 0.0847 µM (active); in the test with MOLT-4 it was 0.08 µM (active); with PC-3, 0.0103 µM (active); with HCT-15 it was 0.406 µM; with NCI-H460 it was 0.0204 µM (active). The GI50 with T47D was < 0.01 µM (active); in the test on RPMI-8226, < 0.0181 µM (active); in the test on U-251, < 0.0498 µM (active).
Consider `C=C1c2nc3ccccc3n2C=C(c2ccc(OC)cc2)N1c1ccccc1`, for which the GI50 with Hs-578T is 14.4 µM (inactive); in the test on NCI-H226, 4.12 µM (inactive); with ACHN, 39.7 µM (inactive); in the test on SK-MEL-5, 3.99 µM (inactive); in the test on MDA-N, 1.43 µM (inactive); in the test with MCF7, 4.76 µM (inactive). Further, the GI50 in the test on A498 was 31 µM (inactive); with DU-145 it was 28.6 µM (inactive); with MOLT-4, 3.95 µM (inactive); in the test on PC-3, 9.12 µM (inactive); with HCT-15, 3.1 µM; in the test with NCI-H460 it was 3.94 µM (inactive). Besides, the GI50 in the test on T47D was 6.4 µM (inactive); in the test on RPMI-8226, 3.65 µM (inactive); in the test on U-251 it was 5.31 µM (inactive).
As to `COc1ccc(/C=C/c2cc(O)cc(OC3OC(CO)C(O)C(O)C3O)c2)cc1O` (stereo not given), the GI50 in the test on Hs-578T was > 100 µM (inactive); in the test with NCI-H226 it was > 100 µM (inactive); with ACHN, 14.8 µM (inactive); with SK-MEL-5, > 100 µM (inactive); in the test on MDA-N, > 100 µM (inactive); in the test on MCF7, > 100 µM (inactive). For the same molecule, the GI50 in the test on A498 is > 100 µM (inactive); in the test on DU-145, 37.8 µM (inactive); in the test with MOLT-4, > 100 µM (inactive); in the test with PC-3, 49.2 µM (inactive); with HCT-15 it was 6.01 µM; with NCI-H460, > 100 µM (inactive). Further, the GI50 with T47D was > 100 µM (inactive); in the test on RPMI-8226, 78.7 µM (inactive); in the test on U-251 it was > 100 µM (inactive).
With `Nc1nc(N)nc(CC(=O)O)n1`, the GI50 in the test on Hs-578T, in the test with NCI-H226, in the test on ACHN, with SK-MEL-5, in the test on MDA-N and in the test on MCF7 was > 100 µM (inactive) throughout. Also, the GI50 in the test on A498 was > 100 µM (inactive); in the test on DU-145, > 100 µM (inactive); in the test with MOLT-4 it was > 100 µM (inactive); in the test on PC-3 it was > 100 µM (inactive); with HCT-15, more than 100 µM; in the test with NCI-H460 it was > 100 µM (inactive). For the same molecule, the GI50 in the test with T47D, in the test on RPMI-8226 and in the test with U-251 was > 100 µM (inactive) throughout.
As to `O=C1/C(=C\c2cccc(Oc3ccccc3)c2)SC(c2ccccc2)N1c1cc(Cl)ccc1Cl` (stereo not given), the GI50 in the test on Hs-578T was 24.4 µM (inactive); with ACHN, 43.7 µM (inactive); in the test with SK-MEL-5, 27 µM (inactive); in the test on MDA-N it was 18.4 µM (inactive); with MCF7, 25.9 µM (inactive); in the test with A498 it was > 100 µM (inactive). The GI50 in the test with DU-145 is 36 µM (inactive); in the test on MOLT-4 it was 10.4 µM (inactive); with PC-3, 52.4 µM (inactive); with HCT-15, 35.2 µM; with NCI-H460, 45.4 µM (inactive); with T47D, 28.4 µM (inactive). The GI50 in the test on RPMI-8226 is 37 µM (inactive); with U-251, 33.4 µM (inactive).
As to `CC(C)(C)O/N=C/c1cc(NC(=S)c2ccsc2)ccc1Cl`, the GI50 is 23.3 µM (inactive) with Hs-578T; 14 µM (inactive) with NCI-H226; 3.99 µM (inactive) in the test with SK-MEL-5; 15.2 µM (inactive) with MDA-N; 11.2 µM (inactive) in the test with MCF7; 10.5 µM (inactive) in the test on A498. In addition, the GI50 in the test on DU-145 is 5.37 µM (inactive); in the test with MOLT-4, 5.71 µM (inactive); in the test with PC-3, 13 µM (inactive); with HCT-15, 14.6 µM; in the test on T47D, 4.01 µM (inactive); in the test with RPMI-8226, 2.75 µM (inactive). Besides, in the test with U-251, the GI50 was 15.7 µM (inactive).
In the case of `Cc1ccc2c(c1)C(=O)C1(C2)Cc2ccc(C)cc2C1=O`, the GI50 in the test with Hs-578T, in the test on ACHN, in the test with SK-MEL-5, in the test with MDA-N, in the test on MCF7 and with A498 was > 100 µM (inactive) each time. The GI50 with DU-145 was > 100 µM (inactive); with MOLT-4 it was > 100 µM (inactive); with PC-3, > 100 µM (inactive); in the test with HCT-15, more than 100 µM; in the test with NCI-H460, > 100 µM (inactive); with T47D, > 100 µM (inactive). Further, the GI50 in the test with RPMI-8226 was > 100 µM (inactive); with U-251 it was 71.8 µM (inactive).
`N#C/C(=C1/c2cc([N+](=O)[O-])ccc2-c2c1cc([N+](=O)[O-])cc2[N+](=O)[O-])N1CCCCC1`: the GI50 in the test on Hs-578T is 43.7 µM (inactive); with NCI-H226 it was > 100 µM (inactive); with ACHN, > 100 µM (inactive); in the test on SK-MEL-5, 91.4 µM (inactive); with MDA-N, > 100 µM (inactive); with MCF7, 19 µM (inactive). Moreover, the GI50 with A498 is > 100 µM (inactive); with DU-145 it was 38.5 µM (inactive); in the test on MOLT-4, > 100 µM (inactive); with PC-3, > 100 µM (inactive); with HCT-15, more than 100 µM; with T47D it was > 100 µM (inactive). Also, the GI50 in the test with RPMI-8226 is 17 µM (inactive); in the test with U-251, 71.8 µM (inactive).
`COc1ccc(N2C(=O)C(Cl)C2c2cc3cc(Br)ccc3nc2Cl)cc1` (stereo not given): the GI50 in the test on Hs-578T is 11.5 µM (inactive); in the test with NCI-H226 it was 5.62 µM (inactive); in the test on ACHN it was 4.89 µM (inactive); with SK-MEL-5, 4.37 µM (inactive); in the test with MDA-N it was 5.31 µM (inactive); in the test with MCF7, 4.82 µM (inactive). In addition, the GI50 with A498 is 16.6 µM (inactive); in the test with DU-145 it was 7.46 µM (inactive); in the test on MOLT-4 it was 4.38 µM (inactive); in the test with PC-3 it was 7.13 µM (inactive); with HCT-15 it was 4.71 µM; in the test with NCI-H460, 5.33 µM (inactive). The GI50 is 15.1 µM (inactive) in the test on T47D and 6.59 µM (inactive) with RPMI-8226.
On to `CC1(C)NC(C)(C)/C(=N\O)C(=NO)/C1=N/O`, for which the GI50 with Hs-578T, in the test with NCI-H226, in the test with ACHN, with SK-MEL-5, with MDA-N and in the test on MCF7 was > 100 µM (inactive) in each case. The GI50 was > 100 µM (inactive) in the test with DU-145; > 100 µM (inactive) in the test with MOLT-4; > 100 µM (inactive) in the test with PC-3; more than 100 µM in the test on HCT-15; > 100 µM (inactive) in the test with NCI-H460; > 100 µM (inactive) in the test with T47D. For the same molecule, the GI50 with RPMI-8226 and in the test on U-251 was > 100 µM (inactive) in each case.
